# Results: paper PMC3368197, “Noncytotoxic and Antitumour-Promoting Activities of Garcinia Acid Esters from Garcinia atroviridis Griff. ex T. Anders (Guttiferae)” (Evidence-based Complementary and Alternative Medicine : eCAM, 2012)
# Like-named read-outs stand apart in the source and are kept apart here.
# What was measured:
# [1] = tested on: Epstein-Barr virus early antigen (EBV-EA) activation; test: In vitro antitumour-promoting assay: inhibition of EBV early antigen activation in Raji cells; type: cell-based; settings: for IC50: human gammaherpesvirus 4, Raji cells, 3 mM sodium n-butyrate + 50 nM PMA, 48 h
# Description: The inhibition of Epstein-Barr virus (EBV) activation was used to evaluate in vitro antitumour-promoting activity. Raji cells were incubated for 48 h at 37°C under 5% CO2 in 1 mL (~5 × 10^5 cells) of RPMI-1640 medium containing 3 mM sodium n-butyrate ([…] Tesque, Japan), 50 nM phorbol 12-myristate 13-acetate (PMA) (Sigma, USA) and the test compounds (600 μM) per well of a 24-well plate. Conventional indirect immunofluorescence staining of early antigen (EA) with high-titre EA-positive serum (EA titre 1 : 1,280) obtained from nasopharyngeal carcinoma (NPC) patients (1 : 20 serum dilution) followed by a 1 : 30 dilution of fluorescein-isothiocyanate-(FITC-)labeled IgG (Sigma, USA) was used to measure EBV activation. The ratio of EA-induced cells to the control experiments only with sodium n-butyrate and PMA was around 50%. The test compounds showing antitumour-promoting activity were serially diluted (2-fold) to determine the IC50 values.
# [2] = tested on: CEM-SS (human T-lymphoblastic leukemia) cells; test: MTT cytotoxicity assay; type: cell-based; settings: 72 h
# Description: The CEM-SS (human T-lymphoblastic leukemia) cell line was obtained from the National Cancer Institute, USA, and the Raji (human B-lymphoblastoid) cell line was provided by Prof. K. Koshimizu, Kinki University, Japan. Cells were cultured in RPMI-1640 (Sigma, USA) medium with 10% v/v foetal calf serum (Sera Lab, UK), 100 IU/mL penicillin (Sigma, USA) and 100 μg/mL streptomycin (Sigma, USA) as a complete growth medium (CGM). Cells were maintained in 25 cm^2 flask with 10 mL of CGM at 37°C with 5% CO2. Every three days the cells were subcultured by splitting the culture with fresh CGM at a ratio of 1 : 4 [10].
# Cytotoxicity was determined using the MTT assay as reported by Ali et al.. Varying concentrations of the test compounds were prepared from the stock solutions by serial dilution in RPMI-1640 to give a volume of 100 μL in each well of a microtiter plate (96-well) as described before. Each well was filled with 100 μl of CEM-SS cell suspension in CGM at 1-2 × 10^5 cells/mL. Controls that contained only CEM-SS cells were included for each sample. The assay for each concentration of extract was performed in triplicate and the culture plates were kept at 37°C with 5% (v/v) CO2 for three days. After 72 h of incubation, 100 μL of medium was removed from each well. […] Absorbance values at 550 nm were measured with a microplate reader (Bio Tek EL 340, USA) after background subtraction at 630 nm. […]
# [3] = tested on: Brine shrimp (Artemia saline Leach); test: Brine shrimp lethality/toxicity assay; type: in vivo; settings: brine shrimp nauplii, preliminary test concentration 300 μM
# Description: Brine shrimp (Artemia saline Leach) eggs (Gold Eagle, USA) were placed in a hatching tank containing sea water for 48 h. Each compound (6 μmol) was dissolved in 0.2 mL methylene chloride:methanol (1 : 1) to prepare a stock solution of 30 mM. From the stock solutions, 50 μL was transferred to different vials and allowed to evaporate. After evaporation, 5 mL of brine was added to each vial in triplicate to prepare a preliminary test concentration corresponding to 300 μM. Ten shrimp nauplii were added to each vial (30 shrimps per concentration). The number of survivors out of 30 shrimps per concentration was recorded.
# [4] = DPPH radical scavenging method; settings: 0.3 mM, 30 min
# Description: The methanol solution of 2,2-diphenyl-1-picrylhydrazyl hydrate (DPPH) (Aldrich Chem. Co., USA) radicals (1 mL, 0.3 mM) was added to each sample (1 mM, 0.5 mL) and was shaken vigorously. The absorbance of each sample was measured at 517 nm after allowing it to stand for 30 min. Each sample (final concentration, 0.3 mM) was assayed in triplicate and averaged. Standard antioxidants, that is, butylated hydroxytoluene (BHT) and ascorbic acid, were used as positive controls.
# [5] = tested on: Epstein-Barr virus early antigen (EBV-EA) activation; parameters: method as in PMID 9247600, PMID 22140296; settings: known antitumour promoter; read-out: IC50, inhibition of EBV activation; cited from earlier work
SMILES,IC50 [1] [µM],CD50 [2] [µM],LC50 [3] [µM],"Radical scavenging (%), DPPH assay [4] [%]",fold higher antitumour-promoting activity than compound 2 ([1]; ratio of EBV-EA IC50 values) [fold],IC50 [5] [µM]
"CCCCOC(=O)CC(O)(C(=O)OC)C(O)C(=O)OCCCC (stereo not shown) [Compound 2, 1′,1′′-dibutyl methyl hydroxycitrate]",560,> 100,> 300,5.5,,
"CCCCOC(=O)CC1(O)C(=O)OC1C(=O)OCCCC (stereo not shown) [Compound 1, 2-(butoxycarbonylmethyl)-3-butoxycarbonyl-2-hydroxy-3-propanolide]",70,> 100,> 300,3.4,8,
O=c1c(-c2ccc(O)cc2)coc2cc(O)cc(O)c12 [genistein],,,,,,~20
